Data on 29 compounds can be found in US4218448A, “Antihypertensive polyfluorohydroxyisopropyl bicyclic and tricyclic carbostyrils” (E. I. Du Pont de Nemours and Company, priority 1977, dated 1980).

The test has as its system DOCA hypertensive rats. The test can be described thus: Antihypertensive activity in DOCA hypertensive rats (oral), systolic arterial blood pressure. In kind it is in vivo. The note with it: Rattus norvegicus, 1.5 h, read-out: ED50. The protocol:
Rats are made hypertensive by subcutaneous implantation of pellets of desoxycorticosterone acetate (DOCA) and by giving saline solution to drink essentially according to the method described by Sturtevant [Annals of Internal Medicine, 49, 1281 (1958)]. Graded dose levels of each compound are administered orally to groups of 8 hypertensive rats. The compound is prepared in an aqueous polyvinyl alcohol/acacia vehicle and administered at a volume to body weight ratio of 5.0 ml/kg. Sixteen hypertensive rats receiving the aqueous vehicle by the same route serve as controls for each test. At various intervals of time after treatment, usually 90 minutes, the systolic arterial blood pressure of each rat is determined by a modification of the microphone-manometer technique [Friedman, M. and Freed, S. C., Proc. Soc. Exp. Biol, and Med., 70, 670 (1949)]. […]

[1] abbreviates: oral, groups of 8 DOCA hypertensive rats, usually 90 minutes after treatment, dose producing 30 mm Hg reduction in blood pressure vs controls (Effective Dose 30, ED30).

Like-named read-outs stand apart in the source and are kept apart here.

For the compound `Cc1cc(=O)n2c3c(cc(C(O)(C(F)(F)F)C(F)(F)F)cc13)C(C)CC2` (centres unmarked), under setting [1], the ED (30 mm Hg) is 3.6 mg/kg.

As for `Cc1cc(=O)n2c3c(cc(C(O)(C(F)(F)F)C(F)(F)F)cc13)C(C)C2` (centres unmarked), under setting [1], the ED (30 mm Hg) was determined as 0.6 mg/kg.

For the compound `Cc1cc(=O)n2c3c(cc(C(O)(C(F)(F)F)C(F)(F)F)cc13)CCC2` [Example 1, 2,3-dihydro-9-[2,2,2-trifluoro-1-hydroxy-1-(trifluoromethyl)ethyl]-7-methyl-1H,5H-benzo[ij]quinolizin-5-one], the ED (30 mm Hg) under setting [1] is 1 mg/kg.

Take `Cc1cc(=O)n2c3c(cc(C(O)(C(F)(F)F)C(F)(F)F)cc13)CCC2C` (centres unmarked) [Example 2, 2,3-dihydro-3,7-dimethyl-9-[2,2,2-trifluoro-1-hydroxy-1-(trifluoromethyl)ethyl]-1H,5H-benzo-[ij]quinolizin-5-one]: the ED (30 mm Hg) under setting [1] was found to be 0.66 mg/kg.

As for `CCc1cc(=O)n2c3c(cc(C(O)(C(F)(F)F)C(F)(F)F)cc13)CCC2` [Example 8, 2,3-dihydro-7-ethyl-9-[2,2,2-trifluoro-1-hydroxy-1-(trifluoromethyl)-ethyl]-1H,5H-benzo[ij]quinolizin-5-one], the ED (30 mm Hg) under setting [1] was determined as 0.27 mg/kg.

For the compound `Cc1c(Cl)c(=O)n2c3c(cc(C(O)(C(F)(F)F)C(F)(F)F)cc13)CCC2` [Example 9, 6-chloro-2,3-dihydro-9-[2,2,2-trifluoro-1-hydroxy-1-(trifluoromethyl)ethyl]-7-methyl-1H,5H-benzo[ij]quinolizin-5-one], the ED (30 mm Hg) (po) stood at 1.6 mg/kg.

Turning to `Cc1c(Br)c(=O)n2c3c(cc(C(O)(C(F)(F)F)C(F)(F)F)cc13)CCC2` [Example 10], the ED (30 mm Hg) under setting [1] was 9 mg/kg.

On to `Cc1cc(=O)n2c3c(cc(C(O)(C(F)(F)F)C(F)(F)F)cc13)CC2` [Example 11, 1,2-dihydro-8-[2,2,2-trifluoro-1-hydroxy-1-(trifluoromethyl)ethyl]-6-methyl-4H-pyrrolo[3,2,1-ij]quinolin-4-one], for which, under setting [1], the ED (30 mm Hg) worked out at 0.13 mg/kg.

In the case of `Cc1c([N+](=O)[O-])c(=O)n2c3c(cc(C(O)(C(F)(F)F)C(F)(F)F)cc13)CC2` [Example 12, 1,2-dihydro-8-[2,2,2-trifluoro-1-hydroxy-1-(trifluoromethyl)-ethyl]-6-methyl-5-nitro-4H-pyrrolo[3,2,1-ij]quinolin-4-one], the ED (30 mm Hg) under setting [1] stood at 1.5 mg/kg.

As to `Cc1c(N)c(=O)n2c3c(cc(C(O)(C(F)(F)F)C(F)(F)F)cc13)CC2` [Example 13, 1,2-dihydro-8-[2,2,2-trifluoro-1-hydroxy-1-(trifluoromethyl)-ethyl]-5-amino-6-methyl-4H-pyrrolo[3,2,1-ij]quinolin-4-one], the ED (30 mm Hg) under setting [1] worked out at 5.4 mg/kg.

With `Cc1cc(=O)n2c3c(cc(C(O)(C(F)(F)F)C(F)(F)F)cc13)CC2C` (centres unmarked) [Example 14, 1,2-dihydro-2,6-dimethyl-8-[2,2,2-trifluoro-1-hydroxy-1-(trifluoromethyl)-ethyl]-4H-pyrrolo[3,2,1-ij]quinolin-4-one], under setting [1], the ED (30 mm Hg) was 0.047 mg/kg.

With `CCc1cc(=O)n2c3c(cc(C(O)(C(F)(F)F)C(F)(F)F)cc13)CC2` [Example 22, 1,2-dihydro-6-ethyl-8-[2,2,2-trifluoro-1-hydroxy-1-(trifluoromethyl)ethyl]-4H-pyrrolo[3,2,1-ij]quinolin-4-one], the ED (30 mm Hg) under setting [1] was found to be 0.11 mg/kg.

As to `Cc1cc(=O)n2c3c(cc(C(O)(C(F)(F)F)C(F)(F)F)cc13)CCCC2` [Example 23, 5,6,7,8-tetrahydro-10-[2,2,2-trifluoro-1-hydroxy-1-(trifluoromethyl)ethyl]-1-methyl-3H-azepino[3,2,1-ij]quinolin-3-one], the ED (30 mm Hg) under setting [1] turned out to be 1.3 mg/kg.

As to `Cc1cc(=O)[nH]c2ccc(C(O)(C(F)(F)F)C(F)(F)F)cc12` [Example 24, 6-(2,2,2-trifluoro-1-hydroxy-1-(trifluoromethyl)ethyl)-4-methyl-2(1H)-quinolinone], under setting [1], the ED (30 mm Hg) is 4.1 mg/kg.

For `Cc1cc(=O)[nH]c2c(C)cc(C(O)(C(F)(F)F)C(F)(F)F)cc12` [Example 25], the ED (30 mm Hg) under setting [1] was found to be 3.7 mg/kg.

`CCc1cc(C(O)(C(F)(F)F)C(F)(F)F)cc2c(C)cc(=O)[nH]c12` [Example 26]: the ED (30 mm Hg) under setting [1] is 1.3 mg/kg.

For the compound `CCn1c(=O)cc(C)c2cc(C(O)(C(F)(F)F)C(F)(F)F)ccc21` [Example 31, 1-ethyl-6-[2,2,2-trifluoro-1-hydroxy-1-(trifluoromethyl)ethyl]-4-methyl-2(1H)-quinolinone], the ED (30 mm Hg) under setting [1] stood at 1.2 mg/kg.

Consider `Cc1cc(=O)n(C)c2ccc(C(O)(C(F)(F)F)C(F)(F)F)cc12` [Example 32], for which, under setting [1], the ED (30 mm Hg) was 0.4 mg/kg.

For the compound `CCCCn1c(=O)cc(C)c2cc(C(O)(C(F)(F)F)C(F)(F)F)ccc21` [Example 34], the ED (30 mm Hg) under setting [1] came out at 5.2 mg/kg.

Take `O=c1ccc2cc(C(O)(C(F)(F)F)C(F)(F)F)cc3c2n1CCC3` [Example 42, 2,3-dihydro-9-[2,2,2-trifluoro-1-hydroxy-1-(trifluoromethyl)ethyl]-1H,5H-benzo[ij]quinolizin-5-one]: under setting [1], the ED (30 mm Hg) is 3 to 9 mg/kg.

In the case of `CCC(=O)OC(c1cc2c3c(c1)c(C)cc(=O)n3CC2)(C(F)(F)F)C(F)(F)F` [Example 43, 1,2-dihydro-8-[2,2,2-trifluoro-1-hydroxy-1-(tri-fluoromethyl)ethyl]-6-methyl-4H-pyrrolo[3,2,1-ij]quinolin-4-one propanoate], the ED (30 mm Hg) under setting [1] was 0.22 mg/kg.

In the case of `CC(=O)OC(c1cc2c3c(c1)c(C)cc(=O)n3CC2)(C(F)(F)F)C(F)(F)F` [Example 44, 1,2-dihydro-8-[2,2,2-trifluoro1-hydroxy-1-(trifluoromethyl)ethyl]-6-methyl-4H-pyrrolo[3,2,1-ij]quinolin-4-one acetate], under setting [1], the ED (30 mm Hg) worked out at 0.2 mg/kg.

On to `CCCCCCCCCCCC(=O)OC(c1cc2c3c(c1)c(C)cc(=O)n3CC2)(C(F)(F)F)C(F)(F)F` [Example 45, 1,2-dihydro-8-[2,2,2-trifluoro-1-hydroxy-1-(trifluoromethyl)ethyl]-6-methyl-4H-pyrrolo[3,2,1-ij]quinolin-4-one laurate], for which the ED (30 mm Hg) under setting [1] was 0.12 mg/kg.

Turning to `Cc1cc(=O)n2c3c(cc(C(OC(=O)c4ccccc4)(C(F)(F)F)C(F)(F)F)cc13)CC2` [Example 46], the ED (30 mm Hg) under setting [1] turned out to be 0.25 mg/kg.

Take `COC(c1cc2c3c(c1)c(C)cc(=O)n3CC2)(C(F)(F)F)C(F)(F)F` [Example 50, 1,2-dihydro-8-[2,2,2-trifluoro-1-methoxy-1-(trifluoromethyl)-ethyl]-6-methyl-4H-pyrrolo[3,2,1-ij]quinolin-4-one]: the ED (30 mm Hg) under setting [1] worked out at 0.35 mg/kg.

For the compound `CCOC(c1cc2c3c(c1)c(C)cc(=O)n3CC2)(C(F)(F)F)C(F)(F)F` [Example 51], under setting [1], the ED (30 mm Hg) came to 0.5 mg/kg.

Turning to `Cc1cc(=O)n2c3c(cc(C(O)(C(F)F)C(F)(F)F)cc13)CC2` (centres unmarked) [Example 52, 1,2-dihydro-8-[2,2,-difluoro-1-hydroxy-1-(trifluoromethyl)ethyl]-6-methyl-4H-pyrrolo[3,2,1-ij]quinolin-4-one], the ED (30 mm Hg) under setting [1] amounted to 0.075 mg/kg.

`Cc1cc(=O)n2c3c(cc(C(O)(C(F)(F)F)C(F)(F)Cl)cc13)CC2` (centres unmarked) [Example 53, 1,2-dihydro-8 [2-chloro-2,2-difluoro-1-hydroxy-1-(trifluoromethyl)ethyl]-6-methyl-4H-pyrrolo[3,-2,1-ij]quinolin-4-one]: the ED (30 mm Hg) under setting [1] stood at 0.07 mg/kg.

As for `Cc1cc(=O)n2c3c(cc(C(O)(C(F)F)C(F)F)cc13)CC2` [Example 54], the ED (30 mm Hg) under setting [1] was found to be 1.2 mg/kg.
